# From article PMC11274654 (Biomedicines, 2024)
# System: Rat Calvarial Osteoblasts (RCOs)
# Test: ALP assay (osteoblast differentiation) in rat calvarial osteoblasts
# Assay type: cell-based
# Conditions: for Activity in ALP Assay (Positive/Negative) / Effect on ALP activity compared to the control (vehicle): 48 h; for EC50: Rattus norvegicus, Calvarial osteoblast, 48 h in osteoblast differentiation media
# Protocol: Sequential digestion was performed to isolate calvarial osteoblast cells from neonatal rat pups. Briefly, calvariae were harvested from ten to twelve 1–2-day old rat pups, cleaned, and subjected to five sequential enzymatic digestions (0.1% dispase and 0.1% collagenase I) of 10–15 min each, followed by culturing of the harvested cells in α-MEM supplemented with 10% FBS [22].
# RCOs were seeded in 24-well plates (1 × 10^4 cells/well), and the cells were treated for 48 h in osteoblast differentiation media (α-MEM supplemented with 10 mM β-glycerophosphate and 50 μg/mL ascorbic acid) with the imidazole group of chemicals (10^−11 M–10^−6 M).
# A total of 2 mg/mL of para-Nitrophenyl phosphate in diethanolamine buffer was used to measure the ALP activity at a 405 nm wavelength.
SMILES,Activity in ALP Assay (Positive/Negative),Effect on ALP activity compared to the control (vehicle),EC50
O=C(Cn1ccnc1[N+](=O)[O-])NCCO [Etanidazole],Positive,significantly increased,0.4 µM
Cc1ncc([N+](=O)[O-])n1CC(O)CCl (stereo not drawn) [Ornidazole],Negative,no effect,> 10 µM
Cn1c([N+](=O)[O-])cnc1COC(N)=O [Ronidazole],Negative,no effect,> 10 µM
Cc1ncc([N+](=O)[O-])n1CC(C)O (stereo not drawn) [Secnidazole],Negative,no effect,> 10 µM
CCS(=O)(=O)CCn1c([N+](=O)[O-])cnc1C [Tinidazole],Negative,no effect,> 10 µM
